Assays:
Test in all cases: KiNativ chemical proteomics profiling in HeLa and PC3 cell lysates
Type in all cases: binding
[1] = biological target: T1, selected panels of kinases in HeLa and PC3 cell lysates (Homo sapiens, UniProt O14757); settings: 10 uM; proteome HEL; peptide DIkPENLLLDER; labeling site Lys2
T1 construct: endogenous in cells; host or cells: HeLa and PC3 cell lysates

[2] = biological target: T2, selected panels of kinases in HeLa and PC3 cell lysates (Homo sapiens, UniProt O75582); settings: 10 uM; proteome HEL; peptide DIk[…]; labeling site Lys2
T2 construct: endogenous in cells; host or cells: HeLa and PC3 cell lysates
T2 sequence (O75582 whole entry): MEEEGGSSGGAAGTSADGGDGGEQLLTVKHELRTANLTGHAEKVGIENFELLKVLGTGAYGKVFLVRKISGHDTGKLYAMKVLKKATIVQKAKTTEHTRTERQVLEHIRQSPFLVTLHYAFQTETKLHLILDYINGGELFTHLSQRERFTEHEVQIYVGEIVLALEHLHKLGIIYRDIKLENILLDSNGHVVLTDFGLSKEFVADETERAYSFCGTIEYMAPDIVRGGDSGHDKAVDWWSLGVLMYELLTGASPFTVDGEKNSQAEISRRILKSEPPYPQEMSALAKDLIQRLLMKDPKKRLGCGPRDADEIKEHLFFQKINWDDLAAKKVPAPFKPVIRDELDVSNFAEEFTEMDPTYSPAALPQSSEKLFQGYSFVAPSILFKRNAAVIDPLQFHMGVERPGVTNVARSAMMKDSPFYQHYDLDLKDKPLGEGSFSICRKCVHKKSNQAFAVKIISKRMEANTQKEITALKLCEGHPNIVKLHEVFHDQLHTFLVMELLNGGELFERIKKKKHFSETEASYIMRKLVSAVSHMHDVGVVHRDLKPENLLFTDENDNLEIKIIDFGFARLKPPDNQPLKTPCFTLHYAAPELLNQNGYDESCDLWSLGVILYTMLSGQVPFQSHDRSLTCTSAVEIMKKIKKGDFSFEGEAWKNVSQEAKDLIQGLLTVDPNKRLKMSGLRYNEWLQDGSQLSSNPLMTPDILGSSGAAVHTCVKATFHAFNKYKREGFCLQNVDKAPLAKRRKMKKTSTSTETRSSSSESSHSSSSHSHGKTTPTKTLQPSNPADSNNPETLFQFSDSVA

[3] = biological target: T3, selected panels of kinases in HeLa and PC3 cell lysates (Homo sapiens, UniProt O94804); settings: 10 uM
T3 construct: endogenous in cells; host or cells: HeLa and PC3 cell lysates
T3 sequence (O94804 whole entry): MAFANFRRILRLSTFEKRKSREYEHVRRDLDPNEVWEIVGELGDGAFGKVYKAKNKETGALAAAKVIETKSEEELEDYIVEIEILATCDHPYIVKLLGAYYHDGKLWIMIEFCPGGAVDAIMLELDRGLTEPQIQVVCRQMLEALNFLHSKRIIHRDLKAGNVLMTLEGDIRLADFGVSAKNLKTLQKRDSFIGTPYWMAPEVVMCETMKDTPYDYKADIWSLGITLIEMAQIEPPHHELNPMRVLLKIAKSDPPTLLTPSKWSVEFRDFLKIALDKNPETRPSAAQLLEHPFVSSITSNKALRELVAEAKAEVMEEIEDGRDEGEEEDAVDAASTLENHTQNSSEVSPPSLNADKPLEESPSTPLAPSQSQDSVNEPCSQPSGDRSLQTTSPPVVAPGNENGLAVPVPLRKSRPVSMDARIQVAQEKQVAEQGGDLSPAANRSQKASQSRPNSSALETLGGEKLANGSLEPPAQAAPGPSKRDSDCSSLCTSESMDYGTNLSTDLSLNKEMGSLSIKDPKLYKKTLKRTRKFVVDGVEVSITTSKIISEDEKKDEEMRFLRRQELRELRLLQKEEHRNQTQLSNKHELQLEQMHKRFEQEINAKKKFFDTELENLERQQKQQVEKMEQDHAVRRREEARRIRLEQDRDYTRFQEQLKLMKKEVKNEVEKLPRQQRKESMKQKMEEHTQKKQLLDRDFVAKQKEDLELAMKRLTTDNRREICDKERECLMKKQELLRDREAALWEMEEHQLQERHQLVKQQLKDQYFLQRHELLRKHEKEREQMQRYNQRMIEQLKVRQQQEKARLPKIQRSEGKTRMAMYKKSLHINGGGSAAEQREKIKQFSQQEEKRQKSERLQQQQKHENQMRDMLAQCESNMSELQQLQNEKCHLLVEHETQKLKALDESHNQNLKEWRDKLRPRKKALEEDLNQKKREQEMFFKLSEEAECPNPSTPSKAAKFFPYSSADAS

[4] = biological target: T4, selected panels of kinases in HeLa and PC3 cell lysates (Homo sapiens, UniProt P21709); settings: 10 uM; proteome PC3; peptide […]kIPIR; labeling site Activation Loop
T4 construct: endogenous in cells; host or cells: HeLa and PC3 cell lysates

[5] = biological target: T5, selected panels of kinases in HeLa and PC3 cell lysates (Homo sapiens, UniProt P23458); settings: 10 uM, proteome HEL; for % Inhibiton, JAK1 domain1: peptide […]kNLLLAR, labeling site Other
T5 construct: endogenous in cells; host or cells: HeLa and PC3 cell lysates
T5 sequence (P23458 whole entry, the tested form may be a part): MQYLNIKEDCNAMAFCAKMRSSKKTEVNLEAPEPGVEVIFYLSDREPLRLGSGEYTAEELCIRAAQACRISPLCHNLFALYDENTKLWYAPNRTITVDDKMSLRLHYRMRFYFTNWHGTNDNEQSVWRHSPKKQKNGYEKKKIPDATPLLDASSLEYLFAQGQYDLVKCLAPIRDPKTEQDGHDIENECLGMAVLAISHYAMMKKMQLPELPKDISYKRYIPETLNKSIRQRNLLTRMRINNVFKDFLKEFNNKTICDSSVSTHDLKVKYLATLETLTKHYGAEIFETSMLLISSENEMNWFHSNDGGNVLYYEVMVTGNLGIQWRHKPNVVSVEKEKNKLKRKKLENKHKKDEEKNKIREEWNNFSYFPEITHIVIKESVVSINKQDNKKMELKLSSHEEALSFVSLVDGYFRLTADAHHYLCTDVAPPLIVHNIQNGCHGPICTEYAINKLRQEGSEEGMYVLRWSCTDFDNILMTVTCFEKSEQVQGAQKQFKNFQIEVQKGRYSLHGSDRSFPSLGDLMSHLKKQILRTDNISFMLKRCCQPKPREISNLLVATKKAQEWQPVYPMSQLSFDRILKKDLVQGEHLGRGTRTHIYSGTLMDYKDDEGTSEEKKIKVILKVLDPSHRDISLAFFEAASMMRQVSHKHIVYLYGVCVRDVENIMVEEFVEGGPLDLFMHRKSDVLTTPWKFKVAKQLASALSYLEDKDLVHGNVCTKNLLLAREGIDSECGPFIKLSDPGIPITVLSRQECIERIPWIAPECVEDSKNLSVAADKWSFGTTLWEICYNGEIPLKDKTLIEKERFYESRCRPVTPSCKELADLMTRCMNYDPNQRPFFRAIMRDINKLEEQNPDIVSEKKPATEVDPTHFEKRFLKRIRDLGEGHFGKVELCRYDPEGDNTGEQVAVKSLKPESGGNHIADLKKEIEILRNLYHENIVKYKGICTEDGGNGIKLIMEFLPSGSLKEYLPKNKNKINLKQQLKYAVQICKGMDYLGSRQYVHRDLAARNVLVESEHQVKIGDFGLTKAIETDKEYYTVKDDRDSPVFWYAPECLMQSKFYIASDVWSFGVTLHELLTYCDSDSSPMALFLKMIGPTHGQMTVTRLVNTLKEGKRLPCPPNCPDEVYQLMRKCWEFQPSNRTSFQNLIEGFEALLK

[6] = biological target: T6, selected panels of kinases in HeLa and PC3 cell lysates (Homo sapiens, UniProt P23743); settings: 10 uM; proteome HEL; peptide […]kSGGK; labeling site ATP
T6 construct: endogenous in cells; host or cells: HeLa and PC3 cell lysates

[7] = biological target: T7, selected panels of kinases in HeLa and PC3 cell lysates (Homo sapiens, UniProt P29323); settings: 10 uM; proteome PC3; peptide […]kIPIR; labeling site Activation Loop
T7 construct: endogenous in cells; host or cells: HeLa and PC3 cell lysates
T7 sequence (P29323 19-1055): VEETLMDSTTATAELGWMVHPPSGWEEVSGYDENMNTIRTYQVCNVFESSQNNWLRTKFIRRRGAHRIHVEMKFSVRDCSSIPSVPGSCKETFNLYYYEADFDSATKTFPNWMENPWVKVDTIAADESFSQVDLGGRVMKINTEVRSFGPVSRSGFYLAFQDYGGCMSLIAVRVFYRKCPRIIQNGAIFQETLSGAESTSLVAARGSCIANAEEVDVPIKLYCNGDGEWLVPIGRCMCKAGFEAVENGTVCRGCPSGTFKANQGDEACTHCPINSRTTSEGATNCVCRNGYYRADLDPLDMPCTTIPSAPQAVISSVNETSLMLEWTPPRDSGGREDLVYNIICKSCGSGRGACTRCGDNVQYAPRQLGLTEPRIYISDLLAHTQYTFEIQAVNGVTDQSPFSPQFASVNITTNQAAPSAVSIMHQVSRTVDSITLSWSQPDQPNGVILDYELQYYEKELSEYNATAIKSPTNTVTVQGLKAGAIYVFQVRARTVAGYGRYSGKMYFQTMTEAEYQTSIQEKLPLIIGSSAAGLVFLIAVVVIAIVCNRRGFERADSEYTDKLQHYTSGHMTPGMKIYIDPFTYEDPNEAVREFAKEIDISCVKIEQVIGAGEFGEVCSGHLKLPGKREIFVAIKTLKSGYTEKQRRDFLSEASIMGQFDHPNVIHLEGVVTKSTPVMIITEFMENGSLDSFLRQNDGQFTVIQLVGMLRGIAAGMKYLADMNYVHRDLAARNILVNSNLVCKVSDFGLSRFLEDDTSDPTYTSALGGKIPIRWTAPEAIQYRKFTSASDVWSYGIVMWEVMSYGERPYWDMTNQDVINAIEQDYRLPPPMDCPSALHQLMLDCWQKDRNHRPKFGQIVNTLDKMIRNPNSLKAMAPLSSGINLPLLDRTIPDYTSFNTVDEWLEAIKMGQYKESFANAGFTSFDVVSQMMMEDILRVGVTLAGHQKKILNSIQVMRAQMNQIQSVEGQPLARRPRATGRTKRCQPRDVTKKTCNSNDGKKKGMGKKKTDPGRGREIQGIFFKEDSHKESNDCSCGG

[8] = biological target: T8, selected panels of kinases in HeLa and PC3 cell lysates (Homo sapiens, UniProt P78527); settings: 10 uM, labeling site ATP
T8 construct: endogenous in cells; host or cells: HeLa and PC3 cell lysates

[9] = biological target: T9, selected panels of kinases in HeLa and PC3 cell lysates (Homo sapiens, UniProt Q00535); settings: 10 uM, proteome PC3
T9 construct: endogenous in cells; host or cells: HeLa and PC3 cell lysates
T9 sequence (Q00535 whole entry): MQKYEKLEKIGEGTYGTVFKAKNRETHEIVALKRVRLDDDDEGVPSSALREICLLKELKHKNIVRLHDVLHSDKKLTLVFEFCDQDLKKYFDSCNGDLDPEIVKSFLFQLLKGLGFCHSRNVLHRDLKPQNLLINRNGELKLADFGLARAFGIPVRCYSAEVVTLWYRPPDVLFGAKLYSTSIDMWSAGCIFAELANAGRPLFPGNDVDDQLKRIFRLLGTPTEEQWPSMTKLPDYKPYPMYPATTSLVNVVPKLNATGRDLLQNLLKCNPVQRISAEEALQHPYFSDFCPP

[10] = biological target: T10, selected panels of kinases in HeLa and PC3 cell lysates (Homo sapiens, UniProt Q16644); settings: 10 uM; proteome HEL; peptide […]k[…]; labeling site ATP Loop
T10 construct: endogenous in cells; host or cells: HeLa and PC3 cell lysates
T10 sequence (Q16644 whole entry): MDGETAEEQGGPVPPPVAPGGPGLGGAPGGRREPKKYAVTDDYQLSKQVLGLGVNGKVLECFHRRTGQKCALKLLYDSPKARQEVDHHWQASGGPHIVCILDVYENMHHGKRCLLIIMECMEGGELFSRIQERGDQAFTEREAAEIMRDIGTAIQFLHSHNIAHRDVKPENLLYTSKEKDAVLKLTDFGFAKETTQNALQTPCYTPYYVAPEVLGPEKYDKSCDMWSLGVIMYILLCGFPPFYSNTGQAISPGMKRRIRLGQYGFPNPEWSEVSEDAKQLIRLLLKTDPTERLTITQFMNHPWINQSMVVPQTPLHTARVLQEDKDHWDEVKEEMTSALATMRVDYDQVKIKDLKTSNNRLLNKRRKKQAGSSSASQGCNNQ

[11] = biological target: T11, selected panels of kinases in HeLa and PC3 cell lysates (Homo sapiens, UniProt Q8IU85); settings: 10 uM; proteome HEL; peptide LFAVkCIPK; labeling site Lys1
T11 construct: endogenous in cells; host or cells: HeLa and PC3 cell lysates
T11 sequence (Q8IU85 whole entry): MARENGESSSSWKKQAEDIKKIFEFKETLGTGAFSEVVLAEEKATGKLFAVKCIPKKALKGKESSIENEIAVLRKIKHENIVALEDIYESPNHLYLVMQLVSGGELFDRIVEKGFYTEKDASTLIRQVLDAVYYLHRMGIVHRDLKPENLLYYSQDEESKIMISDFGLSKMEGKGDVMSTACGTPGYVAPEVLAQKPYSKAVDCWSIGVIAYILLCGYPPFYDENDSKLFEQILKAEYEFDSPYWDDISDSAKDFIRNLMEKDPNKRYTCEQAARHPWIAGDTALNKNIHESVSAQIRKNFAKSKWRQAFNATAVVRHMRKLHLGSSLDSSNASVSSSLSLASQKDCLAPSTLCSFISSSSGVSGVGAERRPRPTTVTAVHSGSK

[12] = biological target: T12, selected panels of kinases in HeLa and PC3 cell lysates (Homo sapiens, UniProt Q96PY6); settings: 10 uM; proteome HEL; peptide DIkSQNIFLTK; labeling site Lys2
T12 construct: endogenous in cells; host or cells: HeLa and PC3 cell lysates

[13] = biological target: T13, selected panels of kinases in HeLa and PC3 cell lysates (Homo sapiens, UniProt Q96S44); settings: 10 uM, PRPK, peptide FLSGLELVkQGAEAR, labeling site ATP Loop
T13 construct: endogenous in cells; host or cells: HeLa and PC3 cell lysates
T13 sequence (Q96S44 1-253): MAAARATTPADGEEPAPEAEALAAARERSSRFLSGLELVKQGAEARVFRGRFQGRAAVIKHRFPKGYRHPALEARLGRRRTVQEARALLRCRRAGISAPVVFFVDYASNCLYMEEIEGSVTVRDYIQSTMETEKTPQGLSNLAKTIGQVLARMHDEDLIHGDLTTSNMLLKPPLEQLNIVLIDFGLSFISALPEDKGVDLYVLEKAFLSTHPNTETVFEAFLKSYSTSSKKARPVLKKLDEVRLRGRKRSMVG

[14] = biological target: T14, selected panels of kinases in HeLa and PC3 cell lysates (Homo sapiens, UniProt Q9BZL6); settings: 10 uM, PKD2, peptide DVAVkVIDK, labeling site Lys1
T14 construct: endogenous in cells; host or cells: HeLa and PC3 cell lysates
T14 sequence (Q9BZL6 1-878): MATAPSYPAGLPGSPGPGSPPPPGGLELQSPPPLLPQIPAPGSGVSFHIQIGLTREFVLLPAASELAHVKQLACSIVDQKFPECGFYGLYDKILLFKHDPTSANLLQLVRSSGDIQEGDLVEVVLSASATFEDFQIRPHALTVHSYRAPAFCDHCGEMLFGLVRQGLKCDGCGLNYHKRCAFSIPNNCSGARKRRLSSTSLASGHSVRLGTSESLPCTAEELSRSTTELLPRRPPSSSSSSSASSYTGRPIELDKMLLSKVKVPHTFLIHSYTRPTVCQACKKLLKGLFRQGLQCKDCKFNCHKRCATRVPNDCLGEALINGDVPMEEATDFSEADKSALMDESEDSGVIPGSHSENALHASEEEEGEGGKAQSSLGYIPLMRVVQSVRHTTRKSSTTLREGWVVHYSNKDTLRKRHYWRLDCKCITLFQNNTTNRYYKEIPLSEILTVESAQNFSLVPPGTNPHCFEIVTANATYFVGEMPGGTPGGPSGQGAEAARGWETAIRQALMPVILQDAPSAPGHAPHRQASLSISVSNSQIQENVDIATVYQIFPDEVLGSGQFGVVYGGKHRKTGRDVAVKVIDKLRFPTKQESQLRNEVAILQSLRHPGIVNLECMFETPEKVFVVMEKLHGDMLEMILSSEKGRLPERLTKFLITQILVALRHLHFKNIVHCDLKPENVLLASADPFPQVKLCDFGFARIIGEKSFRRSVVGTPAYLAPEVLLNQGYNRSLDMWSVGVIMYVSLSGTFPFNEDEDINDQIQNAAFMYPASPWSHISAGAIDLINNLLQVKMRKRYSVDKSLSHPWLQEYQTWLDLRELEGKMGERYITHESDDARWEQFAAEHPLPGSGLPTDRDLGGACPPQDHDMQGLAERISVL

[15] = biological target: T15, selected panels of kinases in HeLa and PC3 cell lysates (Homo sapiens, UniProt Q9NRM7); settings: 10 uM; proteome HEL; peptide VDTHALYAMkTLR; labeling site Lys1
T15 construct: endogenous in cells; host or cells: HeLa and PC3 cell lysates

[16] = biological target: T16, selected panels of kinases in HeLa and PC3 cell lysates (Homo sapiens, UniProt Q9Y616); settings: 10 uM; proteome HEL; peptide […]k[…]; labeling site Protein Kinase Domain
T16 construct: endogenous in cells; host or cells: HeLa and PC3 cell lysates

[17] = proteome HEL, peptide DLk[…], labeling site Lys2
[18] = proteome HEL, peptide […]kVIETK, labeling site Lys1
[19] = proteome PC3, peptide DLk[…], labeling site Lys2
[20] = proteome PC3, peptide […]kVIETK, labeling site Lys1
[21] = peptide IGDFGLTk[…], labeling site Activation Loop
[22] = peptide […]k[…], labeling site Lys1
[23] = peptide DLkPQNLLINR, labeling site Lys2
[24] = peptide ETHEIVALkR, labeling site Lys1
[25] = peptide […]kR, labeling site Lys1

With `COc1cc(C(=O)N2CCC(N3CCN(C)CC3)CC2)ccc1Nc1ncc2c(n1)N(C1CCCC1)c1ccccc1C(=O)N2C` [Compound 25, 11-cyclopentyl-2-((2-methoxy-4-(4-(4-methylpiperazin-1-yl)piperidine-1-carbonyl)phenyl)amino)-5-methyl-5H-benzo[e]pyrimido[5,4-b][1,4]diazepin-6(11H)-one] the “% Inhibiton, CHK1” value [1] was -12.3%, the “% Inhibiton, MSK1 domain1” value [2] was 26.7% and the “% Inhibiton, LOK” value [3, 17] was 3.2%. The “% Inhibiton, LOK” value [3, 18] was 2.1%, the “% Inhibiton, LOK” value [3, 19] was 8.0% and the “% Inhibiton, LOK” value [3, 20] was 1.9%. For the same molecule, the “% Inhibiton, EphA1” value [4] was -1.8%, the “% Inhibiton, JAK1 domain2” value [5, 21] was 5.1% and the “% Inhibiton, JAK1 domain1” value [5] was 3.2%. The “% Inhibiton, JAK1 domain2” value [5, 22] was 4.8%, the “% Inhibiton, DGKA” value [6] was 8.1% and the “% Inhibiton, EphB2” value [7] was -3.8%. For the same molecule, the “% Inhibiton, DNAPK” value ([8]; proteome HEL, peptide […]k[…]) was 2.3%, the “% Inhibiton, DNAPK” value ([8]; proteome PC3, peptide […]k[…]) was -16.3% and the “% Inhibiton, DNAPK” value ([8]; proteome PC3, peptide k[…]) was -9.9%. For the same molecule, the “% Inhibiton, CDK5” value [9, 23] was -8.6%, the “% Inhibiton, CDK5” value [9, 24] was 9.7% and the “% Inhibiton, CDK5” value [9, 25] was -1.2%. For the same molecule, the “% Inhibiton, MAPKAPK3” value [10] was 1.8%, the “% Inhibiton, CaMK1d” value [11] was 5.8% and the “% Inhibiton, NEK1” value [12] was 14.7%. For the same molecule, the “% Inhibition PRPK” value ([13]; proteome HEL) was -8.1%, the “% Inhibition PRPK” value ([13]; proteome PC3) was -11.3% and the “% Inhibition PKD2” value ([14]; proteome HEL) was -7.1%. For the same molecule, the “% Inhibition PKD2” value ([14]; proteome PC3) was -2.6%, the “% Inhibiton, LATS2” value [15] was -4.2% and the “% Inhibiton, IRAK3” value [16] was 40.5%.

For `CCOc1cc(C(=O)N2CCC(N3CCN(C)CC3)CC2)ccc1Nc1ncc2c(n1)N(C1CCCC1)c1ccccc1C(=O)N2C` [Compound 26], the “% Inhibiton, CHK1” value [1] was 13.8%, the “% Inhibiton, MSK1 domain1” value [2] was ~70.5% and the “% Inhibiton, LOK” value [3, 17] was -13%. For the same molecule, the “% Inhibiton, LOK” value [3, 18] was 24.4%, the “% Inhibiton, LOK” value [3, 19] was 11.4% and the “% Inhibiton, LOK” value [3, 20] was 10%. For the same molecule, the “% Inhibiton, EphA1” value [4] was -0.1%, the “% Inhibiton, JAK1 domain2” value [5, 21] was 6.3% and the “% Inhibiton, JAK1 domain1” value [5] was 24.2%. The “% Inhibiton, JAK1 domain2” value [5, 22] was 32.1%, the “% Inhibiton, DGKA” value [6] was 5.7% and the “% Inhibiton, EphB2” value [7] was -3.1%. The “% Inhibiton, DNAPK” value ([8]; proteome HEL, peptide […]k[…]) was 2.3%, the “% Inhibiton, DNAPK” value ([8]; proteome PC3, peptide […]k[…]) was 10.1% and the “% Inhibiton, DNAPK” value ([8]; proteome PC3, peptide k[…]) was 23.8%. For the same molecule, the “% Inhibiton, CDK5” value [9, 23] was -4.7%, the “% Inhibiton, CDK5” value [9, 24] was -6.5% and the “% Inhibiton, CDK5” value [9, 25] was 11.7%. The “% Inhibiton, MAPKAPK3” value [10] was 20.8%, the “% Inhibiton, CaMK1d” value [11] was 19.9% and the “% Inhibiton, NEK1” value [12] was 3%. For the same molecule, the “% Inhibition PRPK” value ([13]; proteome HEL) was 9.6%, the “% Inhibition PRPK” value ([13]; proteome PC3) was -5.6% and the “% Inhibition PKD2” value ([14]; proteome HEL) was -14.3%. For the same molecule, the “% Inhibition PKD2” value ([14]; proteome PC3) was 26.9%, the “% Inhibiton, LATS2” value [15] was 3.2% and the “% Inhibiton, IRAK3” value [16] was 37%.
